Experimental data from patent USRE37781E1, “Substituted cyclic carbonyls and derivatives thereof useful as retroviral protease inhibitors” (DuPont Pharmaceuticals Company, priority 1991, dated 2002).
Converted amounts (≈) assume the structure as drawn. Like-named read-outs stand apart in the source and are kept apart here.

Assays:
HIV protease = molecular target: T1, HIV protease (Human immunodeficiency virus type 1 group M subtype B, UniProt P04585); experiment: biochemical; set-up: species or system HIV-1
T1 construct: plasmid containing HIV protease under the control of an inducible T7 promoter; made in house; host or cells: E. coli (inclusion bodies, T7 promoter)
Method: HIV Protease Inhibition Assay—Spectroscopic Method
Inclusion bodies were solubilized in 8M urea, 50 mM tris pH 8.0. Protease activity was recovered by dilution 20-fold into buffer containing 50 mM sodium acetate pH 5.5, 1 mM EDTA, 10% glycerol and 5% ethylene glycol. Enzyme was used at a final concentration of 1.0-10 ug/ml.
Stock solutions of 10 mM were prepared in DMSO.
All further dilutions were done in DMSO.

HIV-1 (RF) in MT-2 cells = experiment: microbe, parasite or virus in culture; format: cell-based
Procedure, shortened: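 HIV-1 laboratory strains (RF, MN, IIIB) grown in H9 cells in RPMI 1640 with 5% FCS; infections in MT-2 cells. Viral RNA quantified by hybridization with biotinylated gag/pol capture probes on streptavidin plates and alkaline phosphatase-conjugated reporter probes; BH10 gag-pol in vitro transcripts serve as RNA standards.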

[1] = Human immunodeficiency virus 1, MT2, Table 1c, read-out: IC90
[2] = Human immunodeficiency virus 1, MT2, Table 1e, read-out: IC90
[3] = Table 1d, upper part, read-out: Ki
[4] = Human immunodeficiency virus 1, MT2, 24 h, Table 1d, upper part, read-out: IC90
[5] = second table headed Table 2A, read-out: Ki

N#CN=C1N(Cc2cccc(CO)c2)C(Cc2ccccc2)C(O)C(O)C(Cc2ccccc2)N1Cc1cccc(CO)c1 (stereo not drawn) [Example 1CO]
melting point: 193.8 °C
Ki (HIV protease; Ki): < 10 nM
IC90 (HIV-1 (RF) in MT-2 cells; [1]): < 10 µg/mL

CC(C)CCCCN1C(=O)N(CCCCC(C)C)C(Cc2ccccc2)C(O)C(O)C1Cc1ccccc1 (stereo not drawn) [Example 1AN]
melting point: 105 to 107 °C
Ki (HIV protease; Ki): 10 to 1000 nM

N#CN=C1N(Cc2cccc(C#N)c2)C(Cc2ccccc2)C(O)C(O)C(Cc2ccccc2)N1Cc1cccc(C#N)c1 (stereo not drawn) [Example 1CH]
melting point: 108.5 °C
Ki (HIV protease; Ki): 10 to 1000 nM
IC90 (HIV-1 (RF) in MT-2 cells; [1]): < 10 µg/mL

O=C1N(CCN2CCOCC2)C(Cc2ccccc2)C(O)C(O)C(Cc2ccccc2)N1CCN1CCOCC1 (stereo not drawn) [Example 1AA]
melting point: 70 to 75 °C
Ki (HIV protease; Table 1a, read-out: Ki): > 1000 nM

CN1C(=O)N(C)C(Cc2ccccc2)C(O)C(O)C1Cc1ccccc1 (stereo not drawn) [Example 1W]
melting point: 170 to 174 °C
Ki (HIV protease; Ki): > 1000 nM

CC(=O)c1cccc(CN2C(=O)N(Cc3cccc(C(C)=O)c3)[C@H](Cc3ccccc3)[C@H](O)[C@H]2CCc2ccccc2)c1 [Example 8P]
Ki (HIV protease; Ki): < 10 nM
IC90 (HIV-1 (RF) in MT-2 cells; [2]): < 10 µg/mL

CC1(C)OC2C(O1)C(Cc1ccccc1)N(Cc1ccc3ccccc3c1)C(=O)N(Cc1ccc3ccccc3c1)C2Cc1ccccc1 (stereo not drawn) [Example 7R]
Ki (HIV protease; [3]): > 1000 nM
IC90 (HIV-1 (RF) in MT-2 cells; [4]): > 100 µg/mL

C#CCN1C(=O)N(CC#C)C(Cc2ccccc2)C(O)C(O)C1Cc1ccccc1 (stereo not drawn) [Example 1AP]
melting point: 198 to 200 °C
Ki (HIV protease; Table 1a, read-out: Ki): 10 to 1000 nM

C=CCN1C(=O)N(CCCC)C(Cc2ccccc2)C2OC(=O)OC2C1Cc1ccccc1 (stereo not drawn) [Example 7E]
Ki (HIV protease; Ki): 10 to 1000 nM
IC90 (HIV-1 (RF) in MT-2 cells; [4]): < 10 µg/mL

CC(C)CCCN1C(=O)N(CCCC(C)C)C(Cc2ccccc2)C(O)C(O)C1Cc1ccccc1 (stereo not drawn) [Example 1AM]
melting point: 120 to 122 °C
Ki (HIV protease; Ki): < 10 nM

NC(=NO)c1cccc(CN2C(=O)N3C(Cc4ccccc4)C3C(O)C2Cc2ccccc2)c1 (stereo not drawn) [Example 21H]
Ki (HIV protease; Table 2j, read-out: Ki): 10 to 1000 nM
IC90 (HIV-1 (RF) in MT-2 cells; Table 2j): +++ (+++=<10 μg/mL)

O=C1N(CC2CC2)C(C(O)Cc2ccccc2)[C@@H](O)[C@@H](Cc2ccccc2)N1CC1CC1 (stereo partly drawn) [Example 7Z]
Ki (HIV protease; Table 1e, read-out: Ki): 10 to 1000 nM
IC90 (HIV-1 (RF) in MT-2 cells; [2]): < 10 µg/mL

O=C1N(Cc2cccc(OCc3ccccc3)c2)C(Cc2ccccc2)C(O)C2C(Cc3ccccc3)N12 (stereo not drawn) [Example 21E]
Ki (HIV protease; Table 2j, read-out: Ki): > 1000 nM
IC90 (HIV-1 (RF) in MT-2 cells; Table 2j): ++/+ (The ++/+ is used in the cases where an IC90 was determined to be >50 μg/mL)

CC(=O)OC1C(O)C(Cc2ccccc2)N(Cc2ccc3ccccc3c2)C(=O)N(Cc2ccc3ccccc3c2)C1Cc1ccccc1 (stereo not drawn) [Example 7K]
Ki (HIV protease; [3]): 10 to 1000 nM
IC90 (HIV-1 (RF) in MT-2 cells; [4]): > 100 µg/mL

N#Cc1cccc(CN2C(=O)N(Cc3cccc(C#N)c3)[C@H](Cc3ccccc3)[C@H](O)C2CCc2ccccc2)c1 (stereo partly drawn) [Example 8O]
Ki (HIV protease; Ki): 10 to 1000 nM
IC90 (HIV-1 (RF) in MT-2 cells; Table 1e): +++ (+++=<10 μg/mL)

CCCCCCN1C(=O)N(CCCCCC)C(Cc2ccccc2)C(O)C(O)C1Cc1ccccc1 (stereo not drawn) [Example 1Y]
melting point: 110 to 112 °C
Ki (HIV protease; Ki): < 10 nM

O=C1NC(Cc2ccccc2)C(O)C2C(Cc3ccccc3)N12 (stereo not drawn) [Example 21A]
Ki (HIV protease; Table 2j, read-out: Ki): > 1000 nM
IC90 (HIV-1 (RF) in MT-2 cells; Table 2j): ++/+ (The ++/+ is used in the cases where an IC90 was determined to be >50 μg/mL)

O=C1N(Cc2ccccc2)C(Cc2ccccc2)C(O)C2C(Cc3ccccc3)N12 (stereo not drawn) [Example 21D]
Ki (HIV protease; Table 2j, read-out: Ki): > 1000 nM
IC90 (HIV-1 (RF) in MT-2 cells; Table 2j): ++/+ (The ++/+ is used in the cases where an IC90 was determined to be >50 μg/mL)

O=C1OC2C(O1)C(Cc1ccccc1)N(CC1CC1)C(=O)N(CC1CC1)C2Cc1ccccc1 (stereo not drawn) [Example 7G]
Ki (HIV protease; Ki): 10 to 1000 nM
IC90 (HIV-1 (RF) in MT-2 cells; [4]): < 10 µg/mL

O=C1N(Cc2cccc(-c3noc(C(F)(F)F)n3)c2)[C@H](CCc2ccccc2)[C@@H](O)[C@@H](Cc2ccccc2)N1Cc1cccc(-c2noc(C(F)(F)F)n2)c1 [Example 8X]
Ki (HIV protease; Table 1e, read-out: Ki): 10 to 1000 nM
IC90 (HIV-1 (RF) in MT-2 cells; [2]): 10 to 100 µg/mL (≈ 13.1 to 131 µM)

O=C1N(Cc2ccc(F)cc2)C(Cc2ccccc2)C(O)C(O)C(Cc2ccccc2)N1Cc1ccc(F)cc1 (stereo not drawn) [Example 2E]
Ki (HIV protease; Table 2A, read-out: Ki): < 10 nM
Ki (HIV protease; [5]): < 10 nM
IC90 (HIV-1 (RF) in MT-2 cells; Human immunodeficiency virus 1, MT2, Table 2A, read-out: IC90): < 10 µg/mL
IC90 (HIV-1 (RF) in MT-2 cells; Human immunodeficiency virus 1, MT2, second table headed Table 2A, read-out: IC90): < 10 µg/mL

N#CN=C1N(Cc2ccc(C#N)cc2)C(Cc2ccccc2)C(O)C(O)C(Cc2ccccc2)N1Cc1ccc(C#N)cc1 (stereo not drawn) [Example 1CG]
Ki (HIV protease; Ki): 10 to 1000 nM
IC90 (HIV-1 (RF) in MT-2 cells; [1]): < 10 µg/mL

O=C1N(CC2CC2)C(C(F)Cc2ccccc2)[C@@H](O)[C@@H](Cc2ccccc2)N1CC1CC1 (stereo partly drawn) [Example 8B]
Ki (HIV protease; Table 1e, read-out: Ki): 10 to 1000 nM
IC90 (HIV-1 (RF) in MT-2 cells; [2]): < 10 µg/mL

CCCCCN1C(=O)N(CCCCC)C(Cc2ccccc2)C(O)C(O)C1Cc1ccccc1 (stereo not drawn) [Example 1AK]
melting point: 125 to 127 °C
Ki (HIV protease; Ki): < 10 nM

O=C1N(CC2CC2)C(Cc2ccccc2)C2OC(=S)OC2C(Cc2ccccc2)N1CC1CC1 (stereo not drawn) [Example 7I]
Ki (HIV protease; [3]): 10 to 1000 nM
IC90 (HIV-1 (RF) in MT-2 cells; [4]): < 10 µg/mL

C=CCN1C(=O)N(CC=C)C(Cc2ccccc2)C(OC(C)=O)C(O)C1Cc1ccccc1 (stereo not drawn) [Example 7A]
Ki (HIV protease; [3]): > 1000 nM
IC90 (HIV-1 (RF) in MT-2 cells; [4]): < 10 µg/mL

C=CCN1C(=O)N(CCCC)C(Cc2ccccc2)C2OS(=O)OC2C1Cc1ccccc1 (stereo not drawn) [Example 7D]
Ki (HIV protease; [3]): < 10 nM
IC90 (HIV-1 (RF) in MT-2 cells; [4]): 10 to 100 µg/mL (≈ 21.3 to 213 µM)

O=C1N(Cc2ccc3ccccc3c2)[C@H](Cc2ccccc2)C[C@@H](O)[C@@H](Cc2ccccc2)N1Cc1ccc2ccccc2c1 [Example 7T]
Ki (HIV protease; [3]): < 10 nM
IC90 (HIV-1 (RF) in MT-2 cells; [4]): > 100 µg/mL

NC(=O)c1cccc(CN2C(=O)N3C(Cc4ccccc4)C3C(O)C2Cc2ccccc2)c1 (stereo not drawn) [Example 21G]
Ki (HIV protease; Table 2j, read-out: Ki): 10 to 1000 nM
IC90 (HIV-1 (RF) in MT-2 cells; Table 2j): ++ (++=10 to 100 μg/mL)

O=C1N(CC2CC2)[C@H](Cc2ccccc2)C[C@@H](O)[C@@H](Cc2ccccc2)N1CC1CC1 [Example 7U]
Ki (HIV protease; [3]): < 10 nM
IC90 (HIV-1 (RF) in MT-2 cells; [4]): < 10 µg/mL

C=C(C)CN1C(=O)N(CC(=C)C)C(Cc2ccccc2)C(O)C(O)C1Cc1ccccc1 (stereo not drawn) [Example 1AJ]
melting point: 205 to 207 °C
Ki (HIV protease; Table 1a, read-out: Ki): < 10 nM

O=C1N(Cc2cccc(CO)c2)[C@H](CCc2ccccc2)[C@@H](O)[C@@H](Cc2ccccc2)N1Cc1cccc(CO)c1 [Example 8Z]
Ki (HIV protease; Ki): < 10 nM
IC90 (HIV-1 (RF) in MT-2 cells; [2]): < 10 µg/mL

CCCCCCCN1C(=O)N(CCCCCCC)C(Cc2ccccc2)C(O)C(O)C1Cc1ccccc1 (stereo not drawn) [Example 1AB]
melting point: 100 to 101 °C
Ki (HIV protease; Table 1a, read-out: Ki): 10 to 1000 nM

CC(C)CCCCCN1C(=O)N(CCCCCC(C)C)C(Cc2ccccc2)C(O)C(O)C1Cc1ccccc1 (stereo not drawn) [Example 1AL]
melting point: 144 to 145 °C
Ki (HIV protease; Ki): 10 to 1000 nM

C=CCN1C(=O)N(CC=C)[C@H](Cc2ccccc2)[C@H](O)C1C(F)Cc1ccccc1 (stereo partly drawn) [Example 7W]
Ki (HIV protease; Table 1e, read-out: Ki): 10 to 1000 nM
IC90 (HIV-1 (RF) in MT-2 cells; [2]): 10 to 100 µg/mL (≈ 24.5 to 245 µM)

N#CN=C1N(Cc2cccc(C=O)c2)C(Cc2ccccc2)C(O)C(O)C(Cc2ccccc2)N1Cc1cccc(C=O)c1 (stereo not drawn) [Example 1CP]
Ki (HIV protease; Ki): < 10 nM
IC90 (HIV-1 (RF) in MT-2 cells; [1]): < 10 µg/mL

O=C1N(Cc2ccc(CO)cc2)[C@H](CCc2ccccc2)C[C@@H](Cc2ccccc2)N1Cc1ccc(CO)cc1 [Example 8AC]
Ki (HIV protease; Table 1e, read-out: Ki): 10 to 1000 nM
IC90 (HIV-1 (RF) in MT-2 cells; [2]): < 10 µg/mL

O=C1N(Cc2cc(F)cc(C(F)(F)F)c2)C(Cc2ccccc2)C(O)C(O)C(Cc2ccccc2)N1Cc1cc(F)cc(C(F)(F)F)c1 (stereo not drawn) [Example 2M]
melting point: 162.3 °C
Ki (HIV protease; Table 2A, read-out: Ki): 10 to 1000 nM
Ki (HIV protease; [5]): 10 to 1000 nM

N#Cc1cccc(CN2C(=O)N(Cc3cccc(C#N)c3)[C@H](Cc3ccccc3)[C@H](O)C2CCc2ccccc2)c1 (stereo partly drawn) [Example 8AN]
Ki (HIV protease; Ki): > 1000 nM
IC90 (HIV-1 (RF) in MT-2 cells; Table 1e): + (+=>100 μg/mL)

N#Cc1cccc(CN2C(=O)N3C(Cc4ccccc4)C3C(O)C2Cc2ccccc2)c1 (stereo not drawn) [Example 21F]
Ki (HIV protease; Table 2j, read-out: Ki): > 1000 nM
IC90 (HIV-1 (RF) in MT-2 cells; Table 2j): + (+=>100 μg/mL)

CS(=O)(=O)OC1C(O)C(Cc2ccccc2)N(Cc2ccc3ccccc3c2)C(=O)N(Cc2ccc3ccccc3c2)C1Cc1ccccc1 (stereo not drawn) [Example 7o]
Ki (HIV protease; [3]): 10 to 1000 nM
IC90 (HIV-1 (RF) in MT-2 cells; [4]): < 10 µg/mL

O=C1N(Cc2ccc3ccccc3c2)C(Cc2ccccc2)C2OC(=S)OC2C(Cc2ccccc2)N1Cc1ccc2ccccc2c1 (stereo not drawn) [Example 7N]
Ki (HIV protease; [3]): > 1000 nM
IC90 (HIV-1 (RF) in MT-2 cells; [4]): > 100 µg/mL

CCN1C(=O)N(CC)C(Cc2ccccc2)C(O)C(O)C1Cc1ccccc1 (stereo not drawn) [Example 1AD]
melting point: 214 to 215 °C
Ki (HIV protease; Table 1a, read-out: Ki): 10 to 1000 nM

CC(=O)OC1C(OC(C)=O)C(Cc2ccccc2)N(Cc2ccc3ccccc3c2)C(=O)N(Cc2ccc3ccccc3c2)C1Cc1ccccc1 (stereo not drawn) [Example 7J]
Ki (HIV protease; [3]): 10 to 1000 nM
IC90 (HIV-1 (RF) in MT-2 cells; [4]): > 100 µg/mL
